How the values were obtained:
[1] = molecular target: T1, sRAGE-6×HIS (amino acids 23-352, NP_001127) (Homo sapiens, UniProt Q15109); assay: AlphaScreen measurement of peptide binding to sRAGE; settings: for binding to the receptor (AlphaScreen): biotinylated control peptides 0, 10, 30, 100, 300 nM
T1 construct: fusion protein sRAGE-6×HIS (amino acids 23-352, NP_001127); made in house
Method: The entire homogeneous assay was carried out in 25 mM HEPES, 100 mM NaCl of pH 7.4 and 0.1% BSA in a volume of 20 μl.
(§1) The individual components were brought together in a defined time sequence. […] The various amounts of peptide were then added in order, after a further 30 minutes, to add the donor beads. After a further 60 minutes, the fluorescence was measured in the AlphaQuest instrument from Perkin-Elmer with a time lag of one second. Each measured point was determined as triplicate. The analysis and graphical workup of the results took place with the GraphPrism 4.0 software package.
The binding to the RAGE receptor was measured by employing the AlphaScreen™ System (order number: 6760610M) from Perkin Elmer (Shelton, Conn., USA).
The assay was carried out by the manufacturer's protocol in 25 mM HEPES, 100 mM NaCl of pH 7.4 and 0.1% BSA in a volume of 20 μl. The mixture comprised 2.5 ng/μl of the fusion protein sRAGE-6×HIS (amino acids 23-352, NP_001127), 20 ng/μl anti-HIS acceptor beads, 20 ng/μl streptavidin donor beads and the biotinylated peptides in concentrations of 0, 10, 30, 100, and 300 nM. The peptides, with the exception of AR 1-42 oligomers, were heated at 50° C. for 10 minutes immediately before the test in order to loosen possible aggregations.
as §1, with “evaluation” for “analysis”

[2] = test system: hippocampal sections (CA1 region); assay: Excitatory synaptic transmission and long-term potentiation in hippocampal sections; assay type: cell-based, male Wistar rats; settings: for effect on short-term and long-term potentiation: theta burst stimulation, p=0.016 (NtermR31), p=0.794 (scraNtermR31), repeated measures ANOVA
Method: 400 μm-thick transverse hippocampal sections from 7-8-week-old male Wistar rats (Harlan Winkelmann, Bochum, Germany) were prepared using a tissue chopper and equilibrated for at least 1 hour at 33° C. in Carbogen-gassed artificial cerebrospinal fluid (aCSF) of the following composition: NaCl 124 mM; KCl 4.9 mM; MgSO4 1.3 mM; CaCl2 2.5 mM; KH2PO4 1.2 mM; NaHCO3 25.6 mM; glucose 10 mM; pH 7.4. Recordings were made from the section immersed in Carbogen-gassed artificial cerebrospinal fluid (aCSF) of the same composition.
Stimulation of the Schaffer collaterals took place in the stratum radiatum using a monopolar stimulating electrode with biphasic pulse (voltage range 1-5 V). Excitatory post-synaptic potentials (EPSPs) were recorded in the stratum radiatum using aCSF-filled glass electrodes against a chlorinated silver reference electrode (bath). These reflect in particular the strength of the glutamatergic synaptic transmission.
The values were determined from the gradient of the field EPSPs recorded every 5 min for a period of 120 minutes before and 120 minutes after LTP induction. LTP was induced by so-called theta burst stimulation (4×2 pulses at an interval of 200 ms with a double-pulse interval of 10 ms). […]

[3] = molecular target: sRAGE/Aβ globulomer interaction (Homo sapiens, UniProt P05067); settings: for inhibition of Aβ oligomer binding to sRAGE: increasing peptide concentrations, Aβ 1/5 biotin globulomer 800 nM
Sequence of sRAGE/Aβ globulomer interaction (P05067 672-713 limits assumed): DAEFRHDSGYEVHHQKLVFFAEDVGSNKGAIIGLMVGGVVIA
Method: The HTRF donor and acceptor components, Anti6HIS europium cryptate (CIS Bio catalogue number: 61HISKLA; 500 wells/13 μg) and streptavidin XL-665 (CIS Bio catalogue number: 61HISAXLA, 500 wells/250 μg) were each dissolved in 250 μl of dd H2O, Starting from these stock solutions, 1:50 working dilutions were prepared with a final concentration of 7.4 nM Anti6His cryptates and 121.2 nM streptavidin XL-665 in PBS, 0.1% BSA, pH 7.4.
Working solutions of peptides 6 and 7 were prepared with concentrations of 200 μM, 100 μM, 50 μM, 25 μM, 12.5 μM, 6.25 μM, 3.125 μM, 1.56 μM and 0.78 μM.
To carry out the tests, initially 4 μl of the working solutions of each of peptides 6 and 7, and of a buffer control, were mixed with 4 μl of a 4 μM stock solution of the Aβ 1/5 biotin globulomer (final assay concentration 800 nM) and incubated at room temperature for one hour. The A beta 1/5 biotin globulomer concentration indicated here is based on the Aβ 1-42 monomers which were used to prepare the globulomers.
2 μl portions of the 7.4 nM Anti6His cryptates and of the 121.2 nM streptavidin solution described above were added in order then to incubate this mixture, now at 4° C., for a further two hours. After addition of 4 μl of a 2M KF stock solution, the complete mixture was measured in a BMG Pherastar fluorescence measuring instrument (BMG Labtech GmbH, Offenburg, Germany) in HTRF mode. Separate measurements without peptide were carried out for the max-signal curve. For the background curve, measurements were used with in each case only the AntiGHIS cryptates and strepavidin XL solutions. The calculated % DeltaF values were transferred into GraphPad Prism 4 (GraphPad Software, San Diego, USA) and evaluated. The concentrations indicated in the graphs are based on the final concentration of the complete 20 μl mixture.

[4] = test system: HEK293 RhoA/NgR/p75 cells; assay: Functional actin cytoskeletal rearrangement (ACR) assay; assay type: cell-based, human; settings: preincubation 0.2, 1, 5 μM; stimulation with AP-Nogo-66 (9.6 μg/ml)
Method: 1×10^4 cells were […] into microtiter plates with 96 wells two days before the stimulation. The cells were stimulated with a suitable reagent (e.g. LPA or AP-Nogo-66) in culture medium (RPMI-Glutamax) comprising 5% FCS. After a stimulation period of 5 to 10 minutes, the activation was stopped with cold PBS. The cells were fixed with 3-4% strength paraformaldehyde solution, permeabilized with PBS comprising 0.2% Triton X-100, and incubated with phalloidin Alexa 568 or 488 for 30-45 minutes. Incubation with DAPI additionally took place for 5 minutes for nuclear staining. The cells were visualized with the aid of an epifluorescence microscope (Axiovert 25).
1×10^4 Hek293 RhoA/NgR/p75 cells were transferred into MTP Biocoat microtiter plates with 96 wells two days before the actual start of the test. […] The cells were stimulated with the NgR ligand AP-Nogo-66 (9.6 μg/ml) in culture medium comprising 5% FCS. An unstimulated control mixture (without AP-Nogo66) was prepared for each series of tests. After a stimulation period of 5 to 10 minutes, the activation was stopped with cold PBS. […] were recorded with a cooled CCD camera from Zeiss, and the percentage content of contracted cells, based on the total cell count, was found.

[5] = biotinylated control peptides 0-300 nM

T1 sequence (Q15109 with tags, fused parts or gaps): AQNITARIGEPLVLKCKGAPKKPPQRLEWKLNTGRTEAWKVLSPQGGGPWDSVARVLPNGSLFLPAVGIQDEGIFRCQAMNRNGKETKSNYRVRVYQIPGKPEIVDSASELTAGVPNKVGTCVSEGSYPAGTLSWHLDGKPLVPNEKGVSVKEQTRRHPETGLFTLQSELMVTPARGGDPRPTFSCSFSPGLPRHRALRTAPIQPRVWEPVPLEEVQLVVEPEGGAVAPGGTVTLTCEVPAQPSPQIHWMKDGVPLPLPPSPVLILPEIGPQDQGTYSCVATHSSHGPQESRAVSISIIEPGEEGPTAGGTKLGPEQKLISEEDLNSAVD

E T E D S D T [Minus7]
binding to the receptor (AlphaScreen) [1]: no bonding

APLACPRELIKGKWEVKPKRNPKNQLTIGQL [ScraNtermR31]
effect on short-term and long-term potentiation ([2]; 500 nM): no effect

LPRHRALRTAPIQPRVWEPVPLEEVQLVVE [peptide 7]
inhibitory activity, peptide 7 compared with peptide 6 [3]: more pronounced
inhibition of Aβ oligomer binding to sRAGE [3]: Inhibition

F P V I P A L F W I V L M [Unpol13]
binding to the receptor (AlphaScreen) [1]: no bonding

GKPRAPKCLKPEQ [ScraNtermR13]
affinity to sRAGE compared with NtermR13 [1, 5]: same or slightly higher affinity
maximum signal intensity in the test [1, 5]: highest maximum signal intensity

F S R I R A T H W R V D G [AlterCharge1]
binding to the receptor (AlphaScreen) [1]: binding

R L K R G H A [Plus7]
maximum signal intensity in the test [1, 5]: highest maximum signal intensity

TLQSELMVTPARGGDPRPTFSCSFSPGLPR [peptide 6]
inhibition of Aβ oligomer binding to sRAGE [3]: Inhibition

QNITARIGEPLVLKCKGAPKKPPQRLEWKLN [NtermR31]
input/output ratio ([2]; 500 nM): unaffected
effect on short-term and long-term potentiation ([2]; 500 nM): distinctly suppresses
effect on basal synaptic transmission ([2]; application for 90 minutes): no effect
percentage content of contracted HEK cells [4]: concentration-dependent reduction

Source: patent publication US9291621B2, “AGER-peptides and use thereof” (AbbVie Deutschland GmbH & Co. KG, priority 2005, dated 2016)
